Measurements published in ChEMBL document CHEMBL5506058, “Discovery of Quinazoline and Quinoline-Based Small Molecules as Utrophin Upregulators via AhR Antagonism for the Treatment of Duchenne Muscular Dystrophy” (J Med Chem, 2024).
The source made the active and inactive calls. The rule behind the calls is not given here.

Key:
C2C12 [1] = experiment: Cytotoxicity against mouse C2C12 cells assessed as reduction in cell viability at 0.78 to 100 uM measured after 24 hrs by MTT assay; assay type: toxicity, cell-based; conditions: c2c12, 24 h, dose 0.78-100 µM
[2] = Upregulation of utrophin expression in mouse C2C12 cells assessed as fold increase at 800 nM measured after 72 hrs by In-cell ELISA method; assay type: functional
C2C12 [3] = experiment: Upregulation of utrophin mRNA expression in mouse C2C12 level measured after 72 hrs by qRT-PCR analysis; assay type: functional, cell-based; conditions: dose 200-800 nM
[4] = Upregulation of utrophin mRNA expression in mouse C2C12 cells assessed as fold increase at 800 nM measured after 72 hrs by qRT-PCR analysis; assay type: functional
C2C12 [5] = experiment: Upregulation of utrophin protein expression in mouse C2C12 level measured after 72 hrs by Westernblot analysis; assay type: functional, cell-based; conditions: dose 200-800 nM
C2C12 [6] = experiment: Upregulation of utrophin mRNA expression in mouse C2C12 cells at 800 nM measured after 72 hrs by qRT-PCR analysis; assay type: functional, cell-based
[7] = Upregulation of utrophin protein expression in mouse C2C12 cells assessed as fold increase at 800 nM measured after 72 hrs by Western blot analysis; assay type: functional

CCS(=O)(=O)c1ccc2nc(Nc3ccc(C(F)(F)F)cc3)ncc2c1
Activity (C2C12 [1]): Toxic | fold change (FC) [2]: 1.25

CCS(=O)(=O)c1ccc2nc(NCc3ccc(C(F)(F)F)cc3)ncc2c1
Activity (C2C12 [3]): Dose-Dependent Effect | fold change (FC) [4]: 1.95 | Activity (C2C12 [1]): Toxic | Activity (C2C12 [5]): Dose-Dependent Effect | fold change (FC) [2]: 1.93 | Activity (C2C12 [6]): Active | fold change (FC) [7]: 2.51

CS(=O)(=O)c1ccc2nc(Nc3ccc(C(F)(F)F)cc3)ncc2c1
Activity (C2C12 [1]): Toxic | fold change (FC) [2]: 1.06

CCS(=O)(=O)c1ccc2nc(Nc3ccc(C(C)(C)C)cc3)ccc2c1
Activity (C2C12 [1]): Toxic | fold change (FC) [2]: 0.93

CCS(=O)(=O)c1ccc2nc(NCc3ccc4c(c3)OCO4)ncc2c1
Activity (C2C12 [1]): Toxic | fold change (FC) [2]: 0.91

CCS(=O)(=O)c1ccc2nc(NCc3ccc(C(C)(C)C)cc3)ncc2c1
Activity (C2C12 [1]): Toxic | fold change (FC) [2]: 1.07

CCS(=O)(=O)c1ccc2nc(NCc3ccc(C(C)(C)C)cc3)ccc2c1
Activity (C2C12 [1]): Toxic | fold change (FC) [2]: 0.9

CS(=O)(=O)c1ccc2nc(NCc3ccc4c(c3)OCO4)ccc2c1
Activity (C2C12 [1]): Toxic | fold change (FC) [2]: 0.97

CCS(=O)(=O)c1ccc2nc(NCCc3cc4ccccc4[nH]3)ncc2c1
Activity (C2C12 [1]): Toxic | fold change (FC) [2]: 1.73

CS(=O)(=O)c1ccc2nc(Nc3ccc(O)cc3)ncc2c1
Activity (C2C12 [1]): Toxic | fold change (FC) [2]: 1.06

CS(=O)(=O)c1ccc2nc(Nc3ccc(O)cc3)ccc2c1
Activity (C2C12 [1]): Toxic | fold change (FC) [2]: 1.03

CCS(=O)(=O)c1ccc2nc(NCc3ccncc3)ncc2c1
Activity (C2C12 [1]): Toxic | fold change (FC) [2]: 1.77

CCS(=O)(=O)c1ccc2nc(NCCc3cc4ccccc4[nH]3)ccc2c1
Activity (C2C12 [1]): Toxic | fold change (FC) [2]: 1.3

CS(=O)(=O)c1ccc2nc(Nc3cc(O)cc(O)c3)ccc2c1
Activity (C2C12 [1]): Toxic | fold change (FC) [2]: 1.08

CS(=O)(=O)c1ccc2cnc(NCc3ccc(C(F)(F)F)cc3)nc2c1
Activity (C2C12 [1]): Toxic | fold change (FC) [2]: 1.8

CCS(=O)(=O)c1ccc2nc(NCc3ccc(C(F)(F)F)cc3)ccc2c1
Activity (C2C12 [1]): Toxic | fold change (FC) [2]: 1.16

CCS(=O)(=O)c1ccc2nc(Nc3ccc(C(C)(C)C)cc3)ncc2c1
Activity (C2C12 [1]): Toxic | fold change (FC) [2]: 1.13

CCS(=O)(=O)c1ccc2cnc(NCc3ccc(C(F)(F)F)cc3)nc2c1
Activity (C2C12 [1]): Toxic | fold change (FC) [2]: 1.51

CS(=O)(=O)c1ccc2nc(Nc3ccc(C(F)(F)F)cc3)ccc2c1
Activity (C2C12 [1]): Toxic | fold change (FC) [2]: 0.93

CS(=O)(=O)c1ccc2nc(Nc3ccc(F)cc3)ncc2c1
Activity (C2C12 [1]): Toxic | fold change (FC) [2]: 1.06

COc1cc(CNc2ncc3cc(S(C)(=O)=O)ccc3n2)cc(OC)c1
Activity (C2C12 [1]): Toxic | fold change (FC) [2]: 1.67

CC(C)(C)c1ccc(Nc2ncc3cc(S(C)(=O)=O)ccc3n2)cc1
Activity (C2C12 [1]): Toxic | fold change (FC) [2]: 1.01

CS(=O)(=O)c1ccc2nc(NCCc3cc4ccccc4[nH]3)ccc2c1
Activity (C2C12 [1]): Toxic | fold change (FC) [2]: 1.78

CC(C)(C)c1ccc(CNc2ccc3cc(S(C)(=O)=O)ccc3n2)cc1
Activity (C2C12 [1]): Toxic | fold change (FC) [2]: 0.99

COc1ccc(Nc2ccc3cc(S(C)(=O)=O)ccc3n2)cc1
Activity (C2C12 [1]): Toxic | fold change (FC) [2]: 0.87

CS(=O)(=O)c1ccc2nc(NCc3ccc(O)cc3)ncc2c1
Activity (C2C12 [1]): Toxic | fold change (FC) [2]: 1.09

CCS(=O)(=O)c1ccc2nc(NCc3ccc(OC)cc3)ccc2c1
Activity (C2C12 [1]): Toxic | fold change (FC) [2]: 0.89

CCS(=O)(=O)c1ccc2nc(NCc3ccc(F)cc3)ncc2c1
Activity (C2C12 [1]): Toxic | fold change (FC) [2]: 1.4

CCS(=O)(=O)c1ccc2nc(Nc3ccc4c(c3)OCO4)ccc2c1
Activity (C2C12 [1]): Toxic | fold change (FC) [2]: 0.98

CS(=O)(=O)c1ccc2nc(NCc3ccc4c(c3)OCO4)ncc2c1
Activity (C2C12 [1]): Toxic | fold change (FC) [2]: 0.92

CCS(=O)(=O)c1ccc2nc(NCc3cc(OC)cc(OC)c3)ncc2c1
Activity (C2C12 [1]): Toxic | fold change (FC) [2]: 1.62

CS(=O)(=O)c1ccc2nc(Nc3ccc4c(c3)OCO4)ncc2c1
Activity (C2C12 [1]): Toxic | fold change (FC) [2]: 0.92

CCS(=O)(=O)c1ccc2nc(NCc3ccc(F)cc3)ccc2c1
Activity (C2C12 [1]): Toxic | fold change (FC) [2]: 1.2

COc1ccc(CNc2ncc3cc(S(C)(=O)=O)ccc3n2)cc1
Activity (C2C12 [1]): Non-Toxic | fold change (FC) [2]: 1.11

CCS(=O)(=O)c1ccc2nc(Nc3cc(O)cc(O)c3)ccc2c1
Activity (C2C12 [1]): Toxic | fold change (FC) [2]: 1.02

CCS(=O)(=O)c1ccc2nc(Nc3ccc(F)cc3)ncc2c1
Activity (C2C12 [1]): Toxic | fold change (FC) [2]: 1.23

COc1cc(CNc2ccc3cc(S(C)(=O)=O)ccc3n2)cc(OC)c1
Activity (C2C12 [1]): Toxic | fold change (FC) [2]: 1.26

CS(=O)(=O)c1ccc2nc(NCc3ccc(C(F)(F)F)cc3)ccc2c1
Activity (C2C12 [1]): Toxic | fold change (FC) [2]: 1.27

CS(=O)(=O)c1ccc2nc(NCCc3cc4ccccc4[nH]3)ncc2c1
Activity (C2C12 [1]): Toxic | fold change (FC) [2]: 1.81

CCS(=O)(=O)c1ccc2nc(Nc3ccc(O)cc3)ncc2c1
Activity (C2C12 [1]): Toxic | fold change (FC) [2]: 1.08

CCS(=O)(=O)c1ccc2nc(Nc3ccc(O)cc3)ccc2c1
Activity (C2C12 [1]): Toxic | fold change (FC) [2]: 0.93

COc1cc(Nc2ccc3cc(S(C)(=O)=O)ccc3n2)cc(OC)c1
Activity (C2C12 [1]): Toxic | fold change (FC) [2]: 1.32

CCS(=O)(=O)c1ccc2nc(Nc3ccc4c(c3)OCO4)ncc2c1
Activity (C2C12 [1]): Toxic | fold change (FC) [2]: 0.6

CCS(=O)(=O)c1ccc2nc(Nc3ccc(OC)cc3)ccc2c1
Activity (C2C12 [1]): Toxic | fold change (FC) [2]: 1.09

CS(=O)(=O)c1ccc2nc(Nc3ccc(F)cc3)ccc2c1
Activity (C2C12 [1]): Toxic | fold change (FC) [2]: 0.93

CCS(=O)(=O)c1ccc2nc(NCc3cc(OC)cc(OC)c3)ccc2c1
Activity (C2C12 [1]): Toxic | fold change (FC) [2]: 1.42

CCS(=O)(=O)c1ccc2nc(NCc3ccc4c(c3)OCO4)ccc2c1
Activity (C2C12 [1]): Toxic | fold change (FC) [2]: 0.98

CCS(=O)(=O)c1ccc2nc(Nc3ccc(C(F)(F)F)cc3)ccc2c1
Activity (C2C12 [1]): Toxic | fold change (FC) [2]: 0.94

CS(=O)(=O)c1ccc2nc(NCc3ccncc3)ncc2c1
Activity (C2C12 [1]): Toxic | fold change (FC) [2]: 1.88 | Activity (C2C12 [6]): Active

COc1ccc(Nc2ncc3cc(S(C)(=O)=O)ccc3n2)cc1
Activity (C2C12 [1]): Toxic | fold change (FC) [2]: 1.05

CS(=O)(=O)c1ccc2cnc(NCc3ccc(F)cc3)nc2c1
Activity (C2C12 [1]): Toxic | fold change (FC) [2]: 0.95

CS(=O)(=O)c1ccc2nc(NCc3ccc(F)cc3)ccc2c1
Activity (C2C12 [1]): Toxic | fold change (FC) [2]: 1

CS(=O)(=O)c1ccc2nc(NCc3ccc(O)cc3)ccc2c1
Activity (C2C12 [1]): Toxic | fold change (FC) [2]: 1.07

CCS(=O)(=O)c1ccc2nc(Nc3cc(OC)cc(OC)c3)ccc2c1
Activity (C2C12 [1]): Toxic | fold change (FC) [2]: 1.17

CC(C)(C)c1ccc(Nc2ccc3cc(S(C)(=O)=O)ccc3n2)cc1
Activity (C2C12 [1]): Toxic | fold change (FC) [2]: 0.61

CCS(=O)(=O)c1ccc2nc(NCc3ccncc3)ccc2c1
Activity (C2C12 [1]): Toxic | fold change (FC) [2]: 1.73

CS(=O)(=O)c1ccc2nc(NCc3ccncc3)ccc2c1
Activity (C2C12 [1]): Toxic | fold change (FC) [2]: 1.42

CCS(=O)(=O)c1ccc2nc(NCc3ccc(O)cc3)ncc2c1
Activity (C2C12 [1]): Toxic | fold change (FC) [2]: 1.12

CS(=O)(=O)c1ccc2nc(Nc3ccc4c(c3)OCO4)ccc2c1
Activity (C2C12 [1]): Toxic | fold change (FC) [2]: 1

COc1cc(Nc2ncc3cc(S(C)(=O)=O)ccc3n2)cc(OC)c1
Activity (C2C12 [1]): Toxic | fold change (FC) [2]: 1.6

COc1ccc(CNc2ccc3cc(S(C)(=O)=O)ccc3n2)cc1
Activity (C2C12 [1]): Toxic | fold change (FC) [2]: 0.94

CCS(=O)(=O)c1ccc2nc(Nc3cc(OC)cc(OC)c3)ncc2c1
Activity (C2C12 [1]): Toxic | fold change (FC) [2]: 1.52

CCS(=O)(=O)c1ccc2nc(NCc3ccc(O)cc3)ccc2c1
Activity (C2C12 [1]): Toxic | fold change (FC) [2]: 0.98

CS(=O)(=O)c1ccc2nc(NCc3ccc(C(F)(F)F)cc3)ncc2c1
Activity (C2C12 [1]): Toxic | fold change (FC) [2]: 1.27

CCS(=O)(=O)c1ccc2nc(Nc3ccc(F)cc3)ccc2c1
Activity (C2C12 [1]): Toxic | fold change (FC) [2]: 0.98

CCS(=O)(=O)c1ccc2nc(NCc3ccc(OC)cc3)ncc2c1
Activity (C2C12 [1]): Toxic | fold change (FC) [2]: 1.01

CC(C)(C)c1ccc(CNc2ncc3cc(S(C)(=O)=O)ccc3n2)cc1
Activity (C2C12 [1]): Toxic | fold change (FC) [2]: 1.19

CCS(=O)(=O)c1ccc2nc(Nc3ccc(OC)cc3)ncc2c1
Activity (C2C12 [1]): Toxic | fold change (FC) [2]: 1.09

CCS(=O)(=O)c1ccc2cnc(NCc3ccc(F)cc3)nc2c1
Activity (C2C12 [1]): Toxic | fold change (FC) [2]: 0.67
